This is an account of results in patent publication US8980587B2, “Process for producing reveromycin A or a synthetic intermediate thereof, process for producing compounds containing a spiroketal ring and novel antineoplastics, fungicides and therapeutic agents for bone disorders” (RIKEN, priority 2010, dated 2015).

Molecules are shown by their SMILES. Values after ≈ are worked out from the molar mass of the structure shown. Like-named read-outs stand apart in the source and are kept apart here.

One assay relates to osteoclasts. Nature of the assay: Growth inhibitory activity against osteoclast (TRAP positive multinucleated cell count). Type of assay: cell-based, mouse. The settings on record: for IC50: Osteoclast, read-out: OC IC50. As to the method: Bone marrow cells were harvested from thigh bone and shin bone of five-week male ddY mouse (manufactured by Japan SLC, Inc.), seeded in a type I collagen coated plate (manufactured by IWAKI) in a culture medium in which α-MEM medium (manufactured by Sigma-Aldrich) was added with 10% fetal bovine serum, 0.5% penicillin/streptomycin solution, 50 ng/ml human M-CSF (Leukoprol, manufactured by Kyowa Hakko), and 1 ng/ml human TGF-β1 (manufactured by R&D Systems), and maintained at 37° C. under a humidified culture of 5% CO2 for 3 days. Cells were then washed twice with PBS and then cells adhered on the plate were used as bone marrow macrophage cells. Bone marrow macrophage cells were further maintained in a culture medium in which α-MEM medium was added with 10% fetal-bovine serum, 0.5% penicillin/streptomycin solution, 50 ng/ml human M-CSF, 50 ng/ml human soluble RANKL (manufactured by Peprotech) at 37° C. under a humidified culture of 5% CO2 for 3 days to differentiate into osteoclasts.
Each of the agents in Table 5 was added to osteoclasts at 0.5% (v/v) and maintained at 37° C. under a humidified culture of 5% CO2 for 24 hours. Subsequently, cells were treated with PBS solution containing 3.7% formalin at room temperature for 30 minutes. After the solution was removed, the cells were further treated with acetone/ethanol solution (1:1 vol/vol) at room temperature for one minute and the solution was removed to dry the cells. Immobilized cells were subjected to a reaction in TRAP solution [50 mM sodium tartrate, 90 mM sodium acetate, 0.01% naphthol AS-MX phosphate (manufactured by Sigma), 0.05% fast red violet LB salt (manufactured by Sigma), pH 5.0] at room temperature for 30 minutes and then washed with distilled water. The number of TRAP positive multinucleated osteoclasts was counted and a rate of survival was determined.

In assay [1] the test system is tsFT210 cells (mouse breast cancer cells CDC2 temperature sensitive strain). Nature of the assay: Growth-inhibiting activity against animal cells (WST-8), tsFT210. Type of assay: cell-based. Here is the method: (§1) HL-60 cells (human acute promyelocytic leukemia cell line) and K562 cells (human chronic myeloid leukemia cell line) were maintained in a culture medium in which RPMI1640 medium (manufactured by Invitrogen) was added with 10% fetal bovine serum (manufactured by Nichirei), 0.5% penicillin/streptomycin solution (manufactured by Invitrogen) at 37° C. under a humidified culture of 5% CO2. tsFT210 cells (mouse breast cancer cells CDC2 temperature sensitive strain) were maintained in a culture medium in which RPMI1640 medium (manufactured by Invitrogen) was added with 5% calf serum (manufactured by Hyclone) and 0.5% penicillin/streptomycin solution at 32° C. under a humidified culture of 5% CO2.
(§2) HL-60 cells and K562 cells were seeded in a 96-well plate (manufactured by IWAKI) so as to be 1.5×10^4 cells/well/100 μl. tsFT210 cells were seeded in a 96-well plate so as to be 1.6×10^4 cell/well/100 μl. Each of the agents in Table 5 was added at 0.5% (v/v). HL-60 cells and K562 cells were maintained at 37° C. under a humidified culture of 5% CO2 and tsFT210 cells were maintain at 32° C. under a humidified culture of 5% CO2. Forty eight hours after addition of the agent, 10 μl of a reagent SF solution for counting live cells (WST-8 reagent, manufactured by Nakarai tesque) was added to each well. HL-60 cells and K562 cells were maintained at 37° C. under a humidified culture of 5% CO2 for 30 minutes and tsFT210 cells were maintain at 32° C. under a humidified culture of 5% CO2 for one hour. After the reaction, absorbance at 450 nm was measured using a microplate reader (manufactured by PerkinElmer) and a cell proliferation rate was determined from the measurement value.
A general note: Tetrazolium dyes change colour on reduction, which living cells bring about.

For assay [2], the system named is K562 cells (human chronic myeloid leukemia cell line). As to the kind of experiment: Growth-inhibiting activity against animal cells (WST-8), K562. It counts as cell-based. As to the method:
as §1, §2

In assay [3] the test system is Escherichia coli (HO141 strain). Nature of the assay: Growth-inhibiting activity against Escherichia coli. It counts as cell-based. Particulars: 6 hours, absorbance at 600 nm, read-out: E. coli IC50. Here is the method: Escherichia coli (HO141 strain) was precultured in culture medium of 0.5% Polypeptone, 0.5% Meat Extract, 0.3% NaCl, and 0.001% Sodium Dodecyl Sulfate (SDS) at 37° C. Absorbance at 600 nm was measured, and Escherichia coli solution was prepared such that the absorbance is 0.005 and seeded 100 μl each in a 96-well plate. Each of the agents in Table 5 was added at 0.5% (v/v) and maintained at 37° C. Six hours after addition of the agent, absorbance at 600 nm was measured using a microplate reader (manufactured by PerkinElmer) and a proliferation rate was determined from the measurement value.

The test system of assay [4] is Budding yeast (MLC30M strain). As to the kind of experiment: Growth-inhibiting activity against yeast. Type of assay: cell-based. The settings on record: for IC50: Saccharomyces cerevisiae, read-out: Yeast IC50. As to the method:
Budding yeast (MLC30M strain) was precultured in a culture medium of 2% Polypeptone, 1% yeast extract, 2% glucose, 0.02% adenine, and 0.001% sodium dodecyl sulfate (SDS) at 30° C. Absorbance at 600 nm was measured, and yeast solution was prepared such that the absorbance is 0.05 and seeded 100 μl each in a 96-well plate. Each of the agents in Table 5 was added at 0.5% (v/v) and maintained at 30° C. Eighteen hours after addition of the agent, absorbance at 600 nm was measured using a microplate reader (manufactured by PerkinElmer) and a proliferation rate was determined from the measurement value.

Assay [5] relates to HL-60 cells (human acute promyelocytic leukemia cell line). As to the kind of experiment: Growth-inhibiting activity against animal cells (WST-8), HL-60. It counts as cell-based. Particulars: for IC50: Homo sapiens, read-out: HL60 IC50; for cancer cell growth-inhibiting activity (in words): summary of Table 5 (HL60, K562, tsFT210), RM-T as compared with RM-A. As to the method: as §1, §2

[6] abbreviates: tsFT210, 48 h, read-out: tsFT210 IC50.
[7] abbreviates: K562, 48 h, read-out: K562 IC50.

What is called IC50 is the concentration at which inhibition is half-maximal. In the case of `CCCC[C@@]1(OC(=O)CCC(=O)O)CC[C@]2(CC[C@H](C)[C@@H](C/C=C(C)/C=C/[C@H](O)[C@@H](C)/C=C/C(=O)O)O2)O[C@H]1/C=C/C(C)=C/C(=O)O` [RM-A, Reveromycin A], the half-maximal inhibitory concentration (IC50) was 0.06 µg/mL (≈ 0.0908 µM) with osteoclasts (Mus musculus, 24 h); 8.5 µg/mL (≈ 12.9 µM) in assay [1] (setting [6]); 4.9 µg/mL (≈ 7.42 µM) in assay [2] (setting [7]); over 50 µg/mL in assay [3]; 4.3 µg/mL (≈ 6.51 µM) in assay [4] (18 h); 2.7 µg/mL (≈ 4.09 µM) in assay [5] (HL-60, 48 h).
As for `CCCCCC[C@@]1(OC(=O)CCC(=O)O)CC[C@]2(CC[C@H](C)[C@@H](C/C=C(C)/C=C/[C@H](O)[C@@H](C)/C=C/C(=O)O)O2)O[C@H]1/C=C/C(C)=C/C(=O)O` [RM-E], the half-inhibitory concentration (IC50) in the assay with osteoclasts (Mus musculus, 24 h) was 0.1 µg/mL (≈ 0.145 µM); in assay [1] (setting [6]), 7 µg/mL (≈ 10.2 µM); in assay [2] (setting [7]), 1.9 µg/mL (≈ 2.76 µM); in assay [3], over 50 µg/mL; in assay [4] (18 h) it was 2.3 µg/mL (≈ 3.34 µM); in assay [5] (HL-60, 48 h), 1.5 µg/mL (≈ 2.18 µM). Besides, the “growth inhibiting actions against osteoclast (in words)” value in the assay on osteoclasts (summary of Table 5) is recorded as “exhibited growth inhibiting actions against osteoclast”. Besides, the “cancer cell growth-inhibiting activity (in words)” value in assay [5] is “high”.
`CCCC[C@H]1CC[C@]2(CC[C@H](C)[C@@H](C/C=C(C)/C=C/[C@H](O)[C@@H](C)/C=C/C(=O)OCC)O2)O[C@H]1/C=C/C(C)=C/C(=O)O` [RM-T ethyl-ester]: the IC50 in the assay with osteoclasts (mouse bone marrow derived osteoclasts, 24 hours, rate of survival) is 6 µg/mL (≈ 10.5 µM); in assay [1] (tsFT210 cells, 32° C., 48 hours after addition of the agent, WST-8, read-out: tsFT210 IC50), 11.4 µg/mL (≈ 19.9 µM); in assay [2] (K562 cells, 48 hours after addition of the agent, WST-8, read-out: K562 IC50), 0.7 µg/mL (≈ 1.22 µM); in assay [3], over 50 µg/mL; in assay [4] (MLC30M strain, 18 hours, absorbance at 600 nm), over 50 µg/mL; in assay [5] (HL-60 cells, 48 hours after addition of the agent, WST-8), 0.2 µg/mL (≈ 0.349 µM). The “cancer cell growth-inhibiting activity (in words)” value in assay [5] is on record as “high”.
For `CCCCC1CCC2(CCC(C)C(C/C=C(C)/C=C/C(O)C(C)/C=C/C(=O)O)O2)OC1/C=C/C(C)=C/C(=O)O` (centres unmarked) [RM-T], the IC50 in the assay with osteoclasts (Mus musculus, 24 h) was 6.2 µg/mL (≈ 11.4 µM); in assay [1] (setting [6]) it was 0.4 µg/mL (≈ 0.734 µM); in assay [2] (setting [7]), 0.7 µg/mL (≈ 1.29 µM); in assay [3], over 50 µg/mL; in assay [4] (18 h), 0.05 µg/mL (≈ 0.0918 µM); in assay [5] (HL-60, 48 h) it was 0.2 µg/mL (≈ 0.367 µM). In assay [4] (summary of Table 5), the “growth-inhibiting activity against yeast (in words)” value is listed as “exhibited growth-inhibiting activity against yeast”. The “cancer cell growth-inhibiting activity (in words)” value in assay [5] is “higher”.
